# Source: US5443967A, “DNA encoding the cancer associated SCM recognition factor” (priority 1993, dated 1995)
# “Also recorded” adds a separate entry of the source. *1 amine or outer side, *2 acyl side, *3 side chain or, on linkers, in order; H or OH if unused. Where a SMILES comes first, the peptide text is derived from it. Bridges are numbered along the chain shown (N, C = ends). Roman numbers before positions name the chains, in order. Where no end group is shown, it is not given here. [ ]: non-standard residue; d: D form. Actinocin(9to1) = Cc1c2oc3c(C)ccc(C(=O)[*:1])c3nc-2c(C(=O)[*:2])c(N)c1=O; NMeV = CN[C@H](C(=O)O)C(C)C; Sar = CNCC(=O)O
# Legend:
# [1] = system: SCM-responding lymphocytes from healthy donors; assay: Modification/induction of SCM response of lymphocytes from healthy donors by preincubation with SCM factor; format: cell-based, human; conditions: 10 μg/5×10^6 cells during incubation with synthetic SCM factor
# Experimental: 10, 1986, and entitled "Automated Collection of Buoyant Density Specific Cells from Density Gradients." Aliquots of these cells were incubated in 3 ml of the following: (a) cell-free blood plasma from cancer patients; (b) plasma from cancer patients ultrafiltered for 12 hours through an Amicon™ UM2 filter with a molecular weight cutoff of 1000 daltons; (c) plasma from cancer patients ultrafiltered for 12 hours through an Amicon™ UM5 filter with a nominal molecular weight cutoff of 500 daltons; (d) general cancer-associated SCM factor as purified through the desalting or Sephadex G-10 column stage; (e) the factor as purified through the Sephadex G-50 column stage; (f) the factor as purified through the DEAE-cellulose column step; (g) the factor as finally purified through the RP-HPLC step; and (h) plasma from healthy donors ultrafiltered through an Amicon™ UM2 filter with a nominal molecular weight cutoff of 1000 daltons. […]
# Before being contacted with either a mitogen or with the SCM factor for determination of the RRSCM the incubated cells were thoroughly washed. The presence or absence of modification was determined by the ratio of the polarization value of the lymphocyte suspension after a short contact period with substrates containing the SCM factor over the polarization value of the lymphocyte suspension after a short contact period with phytohaemagglutinin (PHA). […]
# T1080 fibrosarcoma cells = assay: SCM factor in cultured cancer cells by noncompetitive ELISA; format: cell-based, human
# Experimental: (§1) The SCM factors secreted from human cancer cells in culture whose amino acid sequences were presented in Example 24 also reacted with the anti-SCM antibody of Example 20. A variation on the ELISA assay of Example 21 was used. In this version of the ELISA assay, the assay was performed directly on the eluate from the RP-HPLC purification step that remained adsorbed to the Eppendorf™ collection tubes after loading of the bulk of the eluates onto the sequenator disk. No other SCM factor was added, and there was no additional sample added to the assay. This version of the SCM ELISA assay is noncompetitive; the larger is the quantity of SCM factor adsorbed to the Eppendorf™ tubes, the higher is the measured A405. The results, shown in Table 15, clearly indicate the presence of material able to react with anti-SCM antibody in these fractions.
# (§2) Human cancer cells in culture were directly shown to contain SCM-factor molecules by antibody reactivity. Washed cells from monolayered cultures of several human cancer cells: MCF7 breast cancer cells; T1080 fibrosarcoma cells; A2780 ovarian cancer cells; and HCT80 colon cancer cells, were assayed directly by the noncompetitive ELISA assay procedure of Example 25.
# MCF7 breast cancer cells = assay: as above; format: cell-based, human
# Experimental: as §1, §2
# As shown in Table 17 of Example 26, treatment of human cultured cancer cells with cycloheximide, an inhibitor of protein synthesis, decreases the amount of SCM factor produced by these cells. […] The amounts of SCM factor per 7×10^6 cells in the presence or absence of 10^-3 molar ascorbic acid after a 16-hour incubation were measured by the noncompetitive ELISA procedure of Example 25. The aliquot of cancer cells incubated in the presence of ascorbate ions produced 43.9% less SCM factor than untreated control cells.
# [2] = system: SCM-responding lymphocytes; conditions: from prior applications Ser. No. 07/167,007 and 07/163,250; cited from earlier work
# [3] = system: K 562 human myeloid cell line; assay: Natural lymphocyte cytotoxicity against K 562 cells (51Cr release); format: cell-based; conditions: for Percent Cytotoxicity: PBL, 35 femtomoles, 2.5 hours 37° C., 40:1; for Percent Cytotoxicity: Treated & Washed Lymphocytes: 35 femtomoles per lymphocyte, effector/target 40:1
# Experimental: Aliquots of these lymphocytes were also retained as controls and not incubated. In addition, potentially SCM-responding lymphocytes were obtained from donors having cancer, and treated in the same manner-some aliquots incubated with plasma containing SCM factor and others retained as controls and not incubated.
# After incubation the cytotoxicity of the lymphocytes was tested in accordance with the method described in M. R. Potter and M. Moore, "Natural Cytotoxic Reactivity of Human Lymphocyte Subpopulations," Immunology 37, 187-194 (1979). In accordance with this published method cells of the K 562 human myeloid cell line labeled with ^51 Cr were used as target cells for the assay. The potentially SCM-responding lymphocytes were used as the effector cells. The ratio of target cells to effector cells was 1 to 20. […] The percent of cytotoxicity is determined as follows: [formula] where RS is the percent of ^51 Cr release in the sample, RC the percent of ^51 Cr release in the control and RT is the percent of ^51 Cr release in the presence of a detergent, Triton X-100. […] When the incubation was performed with potentially SCM-responding lymphocytes from cancer patients, the decrease in cytotoxicity was smaller, between 40 and 90%. […] The lower level of cytotoxicity present in cells from cancer patients was consistent with a decrease of such cytotoxicity caused by in vivo exposure to factors such as the cancer-associated SCM recognition factor.
# The purified synthetic SCM factor molecule and peptides F1-F5, F7, and F8, as described above in Example 16, were investigated to determine their suppressive effect on the natural cytotoxicity of lymphocytes against cancer cells, using the human myeloid cell line K 562 as target as measured by the conventional ^51 Cr release method (Example 13).
# In brief, the K 562 target cells grown in suspension in RPMI-FBS culture medium were washed and labeled for 3 hours at 37° C. with 100 μCi sodium [^51 Cr]chromate and then washed 4 times in RPMI growth medium. The effector lymphocytes used were isolated from heparinized peripheral blood of normal healthy donors using either appropriate density solutions to isolate the SCM-responding subpopulation of lymphocytes, as described above under "Isolation of SCM-responding Lymphocytes," or the conventional separation medium Histopaque 1077 for isolation of the total population of peripheral blood lymphocytes (PBL). The effector cell to target cell ratio used in these experiments was 40:1. Control samples contained target cells only and were used to determine background isotope release from the target cells. The test samples contained 0.2 mL aliquots of labeled target cells to which 0.2 mL of effector lymphocytes was added; the effector lymphocytes were either untreated or had been pretreated with either the entire synthetic SCM factor or any of the fragments designated F1 to F5, F7, or F8 for 2.5 hours at 37° C. The tests were carries out in triplicate. Cell suspensions were incubated for 18 hours at 37° C. in an atmosphere of 95% air and 5% CO2. Samples were then centrifuged for 10 minutes at 200 xg. From each test sample tube, a 0.2 mL aliquot of the supernatant was removed. Both the supernatant and the remaining cell pellet were counted in a Beckman gamma counter. The maximum possible isotope release was taken as the count obtained by adding the counts for the supernatant and cell pellets. The percentage of ^51 Cr release was determined for each of the triplicate samples; using the mean value of ^51 Cr release, the percentage of cytotoxicity was calculated according to the equation presented in Table 25.
# [4] = cycloheximide 50 μg/10^6 cells, 16 hrs
# [5] = experiment with untreated control 46.5 ± 1.5
# [6] = experiment with untreated control 72.7 ± 1.2
# [7] = experiment with untreated control 80.4 ± 1.0
# [8] = experiment with untreated control 71.2 ± 1.5
compound,measurement,setting,value
"Cc1c2oc3c(C)ccc(C(=O)N[C@@H]4C(=O)N[C@H](C(C)C)C(=O)N5CCC[C@H]5C(=O)N(C)CC(=O)N(C)[C@@H](C(C)C)C(=O)O[C@@H]4C)c3nc-2c(C(=O)N[C@@H]2C(=O)N[C@H](C(C)C)C(=O)N3CCC[C@H]3C(=O)N(C)CC(=O)N(C)[C@@H](C(C)C)C(=O)O[C@@H]2C)c(N)c1=O [Actinomycin D, actinomycin D] (I: T[dV]P[Sar][NMeV] / II: T[dV]P[Sar][NMeV]; ester I:1-I:C, II:1-II:C; linker I:N-II:N via Actinocin(9to1))",induction of response to synthetic SCM factor in presence of protein synthesis inhibitor,[1],no response to synthetic SCM factor was induced
"C[C@@H]1C[C@@H]([C@H](O)CC2CC(=O)NC(=O)C2)C(=O)[C@@H](C)C1 [Cycloheximide, cycloheximide]",induction of response to synthetic SCM factor in presence of protein synthesis inhibitor,[1],no response to synthetic SCM factor was induced
same,Corrected A405 As % of Control,T1080 fibrosarcoma cells; [4],66.0 % of Control
same,Corrected A405 (SCM factor synthesis),"T1080 fibrosarcoma cells; cycloheximide 50 μg/10^6 cells, 16 hrs, control 1.5060",0.9940
same,decrease of concentration of SCM factor associated with the cells,T1080 fibrosarcoma cells; cycloheximide treatment,34%
same,Corrected A405 As % of Control,"MCF7 breast cancer cells; cycloheximide 20 μg/10^6 cells, 3 hrs",91.2 % of Control
same,Corrected A405 (SCM factor synthesis),"MCF7 breast cancer cells; cycloheximide 20 μg/10^6 cells, 3 hrs, control 2.0716",1.8893
same,Corrected A405 As % of Control,MCF7 breast cancer cells; [4],74.7 % of Control
same,Corrected A405 (SCM factor synthesis),"MCF7 breast cancer cells; cycloheximide 50 μg/10^6 cells, 16 hrs, control 0.9654",0.7217
same,decrease of concentration of SCM factor associated with the cells,MCF7 breast cancer cells; cycloheximide treatment,25.3%
O=C1O[C@H]([C@@H](O)CO)C(O)=C1O [L-ascorbic acid],Corrected ELISA A405 (SCM factor synthesis),"MCF7 breast cancer cells; 1 × 10^-3 M, pH 7.1, 16 hrs at 37° C., 7×10^6 cells, control 1.7448",0.9788
same,less SCM factor produced than untreated control cells,"MCF7 breast cancer cells; 10^-3 molar, 16-hour incubation",43.9%
same,activity at 1000 µM,"MCF7 breast cancer cells; Homo sapiens, MCF7, 1 × 10^-3 M, pH 7.1, 16 hrs at 37° C., read-out: Corrected ELISA A405 as % of Control",56.1%
"F-S-W-G-A-E-G-Q-R (FSWGAEGQR) [EAE peptide, experimental allergic encephalitogenic peptide]",SCM factor activity,[2],has no SCM factor activity; also recorded: completely devoid of SCM activity
F-W-G-A-E-G-Q-R (FWGAEGQR),SCM factor activity,[2],with SCM-factor activity
"FLMIDQNTK [F4, F-L-M-I-D-Q-N-T-K]",Percent Cytotoxicity,[3]; [5],48.6 ± 1.3%
same,Percent Cytotoxicity,[3]; [6],76.2 ± 1.3%
same,Percent Cytotoxicity,[3]; [7],81.0 ± 1.5%
FLMIDQNTKVPLFMGK [F7],Percent Cytotoxicity,[3]; [8],72.7 ± 1.0%
"FNKPFVFLMIDQNTK [F3, F-N-K-P-F-V-F-L-M-I-D-Q-N-T-K]",Percent Cytotoxicity,[3]; [6],74.5 ± 1.5%
same,Percent Cytotoxicity,[3]; [7],80.5 ± 1.0%
"FNKPFVFLMIDQNTKVPLFMGK [F2, FNKPFVFLMIDQNTKVPLFMGK]",Percent Cytotoxicity,[3]; [5],2.4 ± 0.2%
same,Percent Cytotoxicity,[3]; [6],14.9 ± 1.5%
same,Percent Cytotoxicity,[3]; [7],2.6 ± 1.7%
"MIPPEVKFNKPFVF [F5, M-I-P-P-E-V-K-F-N-K-P-F-V-F]",Percent Cytotoxicity,[3]; [6],72.7 ± 1.3%
same,Percent Cytotoxicity,[3]; [7],79.8 ± 0.9%
"MIPPEVKFNKPFVFLMDQNTK [F1, MIPPEVKFNKPFVFLMDQNTK]",Percent Cytotoxicity,[3]; [6],78.5 ± 1.0%
same,Percent Cytotoxicity,[3]; [7],81.0 ± 1.0%
"MIPPEVKFNKPFVFLMIDQNTKVPLFMGK [Synthetic SCM Factor, MIPPEVKFNKPFVFLMIDQNTKVPLFMGK]",dose resulting in a 50% decrease in cytotoxicity,[3],11.5 femtomoles per lymphocyte
same,quantity required for a 50% decrease of the cytotoxic effect,[3],11.5 femtomoles
same,Percent Cytotoxicity: Treated & Washed Lymphocytes,[3]; PBL of healthy donors,3.0 ± 0.8%
same,Percent Cytotoxicity,[3]; [5],0.1 ± 0.8%
same,Percent Cytotoxicity,[3]; [6],3.2 ± 0.1%
same,Percent Cytotoxicity,[3]; [7],3.1 ± 0.8%
same,Percent Cytotoxicity: Treated & Washed Lymphocytes,[3]; SCM-R lymphocytes of healthy donors,0.1 ± 0.9%
VPLFMGK [F8],Percent Cytotoxicity,[3]; experiment with untreated control 31.0 ± 2.0,33.0 ± 1.8%
same,Percent Cytotoxicity,[3]; [8],71.7 ± 1.2%
